Experiments:
Type in all cases: physicochemical
[1] = Stability of acidified formoterol/BDP-HFA 134a solutions in cans coated with a fluorocarbon polymer; details: HFA 134a/12% ethanol/0.4% isopropyl myristate, 3.25 μl 1.0 M HCl
Source text: (§1) Each value is expressed as percent nominal drug concentration.

[2] = Effect of hydrochloric acid on solution pH′ (acidity function) in model vehicle HFA 43-10MEE (Vertrel XF); details: titrated with a strong acid in model vehicle HFA 43-10MEE (Vertrel XF)
Method: The meter reading represents an apparent pH or acidity function (pH′).
(a) 1.0 M hydrochloric acid was added incrementally to 50 mL of HFA 43-10MEE (Vertrel XF) containing 20% w/w ethanol and pH′ measured after each aliquot of acid.

[3] = Stability of acidified TA 2005-HFA 134a solutions in cans coated with a fluorocarbon polymer; details: for stability (in words): almost three months at 50° C.
Source text: as §1

[4] = as above

percent nominal drug concentration ([1]; 4° C., 64 days inverted) [percent nominal]	percent nominal drug concentration ([1]; 4° C., 123 days inverted) [percent nominal]	percent nominal drug concentration ([1]; Initial) [percent nominal]	pH′ down to which the titration profile is shallow, thereafter the acidity function drops abruptly [2]	percent nominal drug concentration ([3]; 1.0 μl 0.08 M HCl per can (apparent pH about 4.8), 50° C., 22 days upright) [percent nominal]	percent nominal drug concentration ([3]; 1.0 μl 0.08 M HCl per can (apparent pH about 4.8), 50° C., 83 days upright) [percent nominal]	percent nominal drug concentration ([3]; 1.0 μl 0.08 M HCl per can (apparent pH about 4.8), Initial, HFA 134a/12% ethanol/1.0% isopropyl myristate, coated cans) [percent nominal]	percent nominal drug concentration ([3]; 1.4 μl 0.08 M HCl per can (apparent pH about 3.2), 50° C., 22 days upright) [percent nominal]	percent nominal drug concentration ([3]; 1.4 μl 0.08 M HCl per can (apparent pH about 3.2), 50° C., 83 days upright) [percent nominal]	percent nominal drug concentration ([3]; 1.4 μl 0.08 M HCl per can (apparent pH about 3.2), Initial) [percent nominal]	percent nominal drug concentration ([3]; 1.8 μl 0.08 M HCl per can (apparent pH about 2.9), 50° C., 22 days upright) [percent nominal]	percent nominal drug concentration ([3]; 1.8 μl 0.08 M HCl per can (apparent pH about 2.9), 50° C., 83 days upright) [percent nominal]	percent nominal drug concentration ([3]; 1.8 μl 0.08 M HCl per can (apparent pH about 2.9), Initial) [percent nominal]	stability (in words) ([3]; apparent pH between 3.0 and 5.0, stable = much less than 10% loss of drug)	stability (in words) ([3]; apparent pH of less than 3)	apparent pH ([4]; 1.0 μl 0.08 M hydrochloric acid per can, 3.5 μg/50 μl in HFA 134a/12% ethanol/1.0% isopropyl myristate)	apparent pH ([4]; 1.4 μl 0.08 M hydrochloric acid per can)	apparent pH ([4]; 1.8 μl 0.08 M hydrochloric acid per can)	Structure (SMILES)
100.10	102.6	99.4																CCC(=O)OCC(=O)[C@@]1(OC(=O)CC)[C@@H](C)C[C@H]2[C@@H]3CCC4=CC(=O)C=C[C@]4(C)[C@@]3(Cl)[C@@H](O)C[C@@]21C [BDP, beclometasone dipropionate]
			~5.0	98.3	99.4	100.0	98.2	98.8	100.0	90.2	88.1	100.0	stable	not	about 4.8	~3.2	~2.9	COc1ccc(C[C@@H](C)NC[C@H](O)c2ccc(O)c3[nH]c(=O)ccc23)cc1 [TA 2005, 8-hydroxy-5-[(1R)-1-hydroxy-2-[[(1R)-2-(4-methoxyphenyl)-1-methylethyl]amino]ethyl]-2(1H)-quinolinone]
